Data set [1] relates to HCT-116. Description: Growth inhibition of human HCT116 cells after 72 hrs by MTT assay. The conditions noted are these: HCT-116, 72 h. In kind it is functional. (In general: Tetrazolium dyes change colour on reduction, which living cells bring about.)
Data set [2] can be described thus: Growth inhibition of human HLF cells by MTT assay.
Data set [3] in a line: Growth inhibition of human SGC7901 cells after 72 hrs by MTT assay. The conditions noted are these: SGC-7901, 72 h. In kind it is functional.
A short description of data set [4]: Growth inhibition of human HLF cells after 72 hrs by MTT assay. In kind it is cell-based.
Data set [5] can be described thus: Growth inhibition of human 16HBE cells after 72 hrs by MTT assay. In kind it is cell-based, 16HBE14o-.
The nature of data set [6]: Growth inhibition of human 16HBE cells by MTT assay.
In data set [7] the test system is HCT-116. The data set can be described thus: Growth inhibition of human HCT116 cells by MTT assay.
The nature of data set [8]: Growth inhibition of human SGC7901 cells by MTT assay. The conditions noted are these: SGC-7901.

As a reminder, the GI50 is the concentration that inhibits growth by half. The low end stands for more potent growth inhibition, the high end for less potent growth inhibition.

On to `CCCCCCCCCC[C@H](O)COCCOC[C@@H](O)CCCCCCCCCCCCC1=C[C@H](C)OC1=O`, for which the GI50 was found to be 0.03 µM in data set [1]; 2.62 µM in data set [2]; 0.16 µM in data set [3]; 4.8 µM in data set [6]; 0.09 µM in data set [7]; 0.25 µM in data set [8]. Moreover, the figures for the GI50 at 72 h in data set [4] and in data set [5] were 9.71 µM and 3.34 µM, respectively.

As for `CC1=C(CCCCCCCCCCN2CCN(CCCCCCCCCCC3=C(C)C(=O)c4ccccc4C3=O)CC2)C(=O)c2ccccc2C1=O`, the GI50 is 0.26 µM in data set [1]; 15.7 µM in data set [2]; > 20 µM in data set [3]; 4.15 µM in data set [6]; 0.26 µM in data set [7]; 0.39 µM in data set [8]. Further, the GI50 at 72 h is > 20 µM in data set [4] and 3.52 µM in data set [5].

For `COC1=C(C)C(=O)C(CCCCCCCCCCN2CCN(CCCCCCCCCCC3=C(C)C(=O)C(OC)=C(C)C3=O)CC2)=C(C)C1=O`, the GI50 is 0.18 µM in data set [1]; > 20 µM in data set [2]; 0.14 µM in data set [3]; 8.4 µM in data set [6]; 0.15 µM in data set [7]; 0.19 µM in data set [8]. Moreover, the GI50 at 72 h in data set [4] and in data set [5] was > 20 µM throughout.

Take `CC1=C(CCCCCCCCCCN2CCCN(C(=O)c3ccc(-c4ccccc4)cc3)CC2)C(=O)c2ccccc2C1=O`: the GI50 in data set [1] was 0.97 µM; in data set [2], > 20 µM; in data set [3] it was 5.57 µM; in data set [6] it was 12.4 µM; in data set [7] it was 13.2 µM; in data set [8], > 20 µM. Moreover, the GI50 at 72 h in data set [4] was > 20 µM; in data set [5], 2.85 µM.

In the case of `COC1=C(C)C(=O)C(CCCCCCCCCCN2CCCN(CCCCCCCCCCC3=C(C)C(=O)C(OC)=C(C)C3=O)CC2)=C(C)C1=O`, the GI50 in data set [1] was found to be 0.04 µM; in data set [2], 6.86 µM; in data set [3], 0.04 µM; in data set [6], 1.78 µM; in data set [7] it was 0.02 µM. For the same compound, the GI50 at 72 h in data set [4] and in data set [5] was > 20 µM each time.

On to `CC1=C(C)C(=O)C(CCCCCCCCCCN2CCN(CCCCCCCCCCC3=C(C)C(=O)C(C)=C(C)C3=O)CC2)=C(C)C1=O`, for which the GI50 in data set [1] is 0.07 µM; in data set [2] it was 5.87 µM; in data set [3] it was > 20 µM; in data set [6], 1.52 µM; in data set [7] it was 0.12 µM. In addition, the GI50 at 72 h was > 20 µM in data set [4] and 3.85 µM in data set [5].

For the compound `COC1=C(OC)C(=O)C(CCCCCCCCCCN2CCCN(CCCCCCCCCCC3=C(C)C(=O)C(OC)=C(OC)C3=O)CC2)=C(C)C1=O`, the GI50 was 1.98 µM in data set [1]; > 20 µM in data set [2]; 8.69 µM in data set [3]; 14 µM in data set [6]; 8.43 µM in data set [7]; 11.7 µM in data set [8]. Besides, the GI50 at 72 h in data set [4] is > 20 µM; in data set [5], 1.14 µM.

With `O=C1C=C(CCCCCCCCCCN2CCCN(C(=O)c3ccc(-c4ccccc4)cc3)CC2)C(=O)c2ccccc21`, the GI50 in data set [1], in data set [2], in data set [3], in data set [6], in data set [7] and in data set [8] was > 20 µM each time. For the same compound, the GI50 at 72 h in data set [4] and in data set [5] was > 20 µM each time.

With `CC1=C(C)C(=O)C(CCCCCCCCCCN2CCCN(C(=O)c3ccc(-c4ccccc4)cc3)CC2)=C(C)C1=O`, the GI50 was 1.78 µM in data set [1]; > 20 µM in data set [2]; 1.39 µM in data set [3]; 7.97 µM in data set [6]; 7.47 µM in data set [7]; 19.9 µM in data set [8]. Further, the values for the GI50 at 72 h in data set [4] and in data set [5] were > 20 µM and 4 µM, respectively.

Regarding `COC1=C(C)C(=O)C(CCCCCCCCCCN2CCCN(C(=O)c3ccc(-c4ccccc4)cc3)CC2)=C(C)C1=O`, the GI50 in data set [1] is 0.89 µM; in data set [2], > 20 µM; in data set [3], 1.56 µM; in data set [6] it was 9.76 µM; in data set [7] it was 9.68 µM; in data set [8] it was 19.4 µM. Moreover, the GI50 at 72 h is > 20 µM in data set [4] and 3.15 µM in data set [5].

Take `COC1=C(C)C(=O)C(CCCCCCCCCCN(C)CCN(C)CCCCCCCCCCC2=C(C)C(=O)C(OC)=C(C)C2=O)=C(C)C1=O`: the GI50 is 1.48 µM in data set [1]; > 20 µM in data set [2]; 9.76 µM in data set [3]; > 20 µM in data set [6]; > 20 µM in data set [7]. Also, the GI50 at 72 h in data set [4] and in data set [5] was > 20 µM throughout.

Consider `COc1cccc2c1C(=O)c1c(O)c3c(c(O)c1C2=O)C[C@@](O)(C(=O)CO)C[C@@H]3O[C@H]1C[C@H](N)[C@H](O)[C@H](C)O1` [DOXORUBICIN], for which the GI50 in data set [2] worked out at 0.33 µM; in data set [6] it was 0.18 µM; in data set [7], 0.15 µM; in data set [8], 0.55 µM.

`COC1=C(OC)C(=O)C(CCCCCCCCCCN2CCCN(C(=O)c3ccc(-c4ccccc4)cc3)CC2)=C(C)C1=O`: the GI50 in data set [1] was 1.36 µM; in data set [2], > 20 µM; in data set [3] it was 5 µM; in data set [6], 8.01 µM; in data set [7], 9.73 µM; in data set [8] it was > 20 µM. For the same compound, the figures for the GI50 at 72 h in data set [4] and in data set [5] were > 20 µM and 10.3 µM, respectively.

Turning to `COC1=C(OC)C(=O)C(CCCCCCCCCCN2CCN(CCCCCCCCCCC3=C(C)C(=O)C(OC)=C(OC)C3=O)CC2)=C(C)C1=O`, the GI50 in data set [1] was 1.95 µM; in data set [2], > 20 µM; in data set [3], 9.77 µM; in data set [6] it was > 20 µM; in data set [7] it was 11.7 µM. Moreover, the GI50 at 72 h in data set [4] was > 20 µM; in data set [5] it was 2.63 µM.

Consider `COC1=C(C)C(=O)C(CCCCCCCCCCN2CCN(C(=O)c3ccc(-c4ccccc4)cc3)CC2)=C(C)C1=O`, for which the 50% growth inhibitory concentration (GI50) in data set [1] is 2.29 µM; in data set [2], > 20 µM; in data set [3] it was 5.27 µM; in data set [6], > 20 µM; in data set [7], 20 µM; in data set [8] it was > 20 µM. For the same compound, the GI50 at 72 h in data set [4] was > 20 µM; in data set [5] it was 3.19 µM.

Turning to `CC1=C(C)C(=O)C(CCCCCCCCCCN2CCCN(CCCCCCCCCCC3=C(C)C(=O)C(C)=C(C)C3=O)CC2)=C(C)C1=O`, the GI50 in data set [1] is 0.3 µM; in data set [2] it was 2.55 µM; in data set [3], 0.14 µM; in data set [6] it was 0.91 µM; in data set [7], 0.1 µM; in data set [8], 0.14 µM. The GI50 at 72 h in data set [4] turned out to be 0.36 µM; in data set [5], 3.32 µM.

In the case of `CC1=C(CCCCCCCCCCN2CCCN(CCCCCCCCCCC3=C(C)C(=O)c4ccccc4C3=O)CC2)C(=O)c2ccccc2C1=O`, the GI50 in data set [1] was 0.09 µM; in data set [2], 2.68 µM; in data set [3], 0.12 µM; in data set [6] it was 1.14 µM; in data set [7], 0.13 µM; in data set [8], 0.15 µM. Besides, the GI50 at 72 h turned out to be 4.95 µM in data set [4] and 2.7 µM in data set [5].

The values above are taken from ChEMBL document CHEMBL3232754, “Identification of novel bivalent mimetics of annonaceous acetogenins via a scaffold-hopping strategy” (Bioorg Med Chem Lett, 2014).
